Experimental data taken from BindingDB's records for doi:10.1016/j.bmcl.2010.05.078 (University of Arizona, 2010).

Columns and labels:
Melanocortin receptor 4 = Melanocortin receptor 4 (Homo sapiens, UniProt P32245); experiment: Displacement of Eu-NDP-alphaMSH from human MC4 receptor expressed in human HEK293 cells
[1] = Agonist activity at mu opioid receptor in guinea pig ileum assessed as inhibition of electrically-stimulated muscle contraction

Melanocortin receptor 4, sequence (P32245 whole entry): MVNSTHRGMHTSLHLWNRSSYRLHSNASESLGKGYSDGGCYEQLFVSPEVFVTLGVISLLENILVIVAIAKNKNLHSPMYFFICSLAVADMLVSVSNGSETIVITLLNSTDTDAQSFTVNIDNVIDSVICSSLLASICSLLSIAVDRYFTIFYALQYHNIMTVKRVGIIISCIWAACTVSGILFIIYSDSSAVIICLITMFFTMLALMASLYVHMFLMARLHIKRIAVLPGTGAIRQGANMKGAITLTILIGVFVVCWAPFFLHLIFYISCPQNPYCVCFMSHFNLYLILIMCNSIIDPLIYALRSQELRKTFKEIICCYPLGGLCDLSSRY

Compound	IC50 (Melanocortin receptor 4) [nM]	IC50 [1] [nM]
CCCC[C@H](NC(=O)[C@H](Cc1c[nH]c2ccccc12)NC(=O)[C@H](CCCN=C(N)N)NC(=O)[C@@H](Cc1ccc2ccccc2c1)NC(=O)[C@H](Cc1cnc[nH]1)NC(=O)[C@H](Cc1ccccc1)NC(=O)[C@@H](C)NC(=O)[C@@H](N)Cc1ccc(O)cc1)C(=O)N[C@@H](CC(=O)O)C(=O)N[C@@H](Cc1ccccc1)C(N)=O [(3S,6S,9S,12S,15R,18S,21S,24R,27S)-18-((1H-imidazol-5-yl)methyl)-9-((1H-indol-3-yl)methyl)-27-amino-3-((S)-1-amino-1-oxo-3-phenylpropan-2-ylcarbamoyl)-21-benzyl-6-butyl-12-(3-guanidinopropyl)-28-(4-hydroxyphenyl)-24-methyl-15-(naphthalen-2-ylmethyl)-5,8,11,14,17,20,23,26-octaoxo-4,7,10,13,16,19,22,25-octaazaoctacosan-1-oic acid]	631	–
Cc1cc(O)cc(C)c1C[C@H](N)C(=O)N1CC(=O)N[C@@H](Cc2cnc[nH]2)C(=O)N[C@H](Cc2ccccc2)C(=O)N[C@@H](CCCN=C(N)N)C(=O)N[C@@H](Cc2c[nH]c3ccccc23)C(=O)N[C@H](C(=O)N[C@@H](CC(=O)O)C(=O)N[C@@H](Cc2ccccc2)C(N)=O)CSSC[C@@H](N)C1=O [(S)-3-((4R,7S,10S,13R,16S,22S)-16-((1H-imidazol-5-yl)methyl)-7-((1H-indol-3-yl)methyl)-22-amino-20-((S)-2-amino-3-(4-hydroxy-2,6-dimethylphenyl)propanoyl)-13-benzyl-10-(3-guanidinopropyl)-6,9,12,15,18,21-hexaoxo-1,2-dithia-5,8,11,14,17,20-hexaazacyclotricosane-4-carboxamido)-4-((S)-1-amino-1-oxo-3-phenylpropan-2-ylamino)-4-oxobutanoic acid]	–	190
